Here are results for eight compounds from PubChem BioAssay (NCI).

Structures are written as SMILES.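 All cell lines were grown in 96-well plates and treated with compound for 48 hours. TGI: concentration producing complete growth inhibition.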

Common to all, as to test: growth of human tumour cells (NCI), 48 h
Assay [1] relates to DMS 114 small cell lung.
The subject of assay [2] is DMS 273 small cell lung.
For assay [3], the system named is HCT-15 colon.
In assay [4] the test system is HL-60(TB) leukemia.
Assay [5] deals with HOP-18 NSCLC.
The test system of assay [6] is K-562 leukemia.
In assay [7] the test system is KM12 colon.
Assay [8] has as its system KM20L2 colon.
Assay [9] relates to LXFL 529 NSCLC.
Assay [10] concerns M19-MEL melanoma.
The subject of assay [11] is RXF 393 renal.
Assay [12] has as its system SF-268 CNS.
Assay [13] deals with SNB-75 CNS.
The subject of assay [14] is SW-620 colon.
In assay [15] the test system is XF 498 CNS.
In assay [16] the test system is DLD-1 colon.
Assay [17] deals with SNB-78 CNS.
Assay [18] concerns MDA-MB-435.

Regarding `C=CCNC(=O)N(CCCC(NC(C)=O)C(=O)NCc1ccccc1)Cc1ccccc1` (centres undefined), the TGI in assay [1], in assay [2], in assay [3], in assay [4], in assay [5] and in assay [6] was above 100 µM each time. Besides, the TGI in assay [7], in assay [8], in assay [9], in [10], in assay [11] and in assay [12] was above 100 µM in each case. Besides, the TGI in [13], in assay [14] and in assay [15] was above 100 µM throughout.
Take `CCOc1ccc(/C(Cl)=C(\C=O)c2ccc(OC)c(OC)c2)cc1OCC`: the TGI is above 100 µM in [16]; 66.1 µM in assay [1]; above 100 µM in [2]; above 100 µM in [3]; 62.7 µM in assay [4]; above 100 µM in assay [5]. In addition, the TGI in assay [6], in assay [7], in [8], in [9], in assay [10] and in [11] was above 100 µM in each case. For the same compound, the TGI in [12], in assay [13], in assay [17], in [14] and in assay [15] was above 100 µM each time.
Take `CC1CN(c2ccc(Cl)cc2)CC(C)OC(=O)O1` (centres undefined): the TGI in assay [16], in [1], in assay [2], in assay [3], in assay [4] and in [6] was above 100 µM in each case. Further, the TGI in assay [7], in assay [8], in [9], in assay [10], in assay [11] and in [12] was above 100 µM throughout. The TGI in [13], in assay [17], in assay [14] and in [15] was above 100 µM each time.
Take `CC(C)CC(NC(=O)OC(C)(C)C)C(=O)Nc1ccc(Nc2nc(F)nc(-c3c4ccccc4c4n3CCS4)n2)cc1` (centres undefined): the TGI was found to be 36.8 µM in [16]; 37.5 µM in [1]; 30.6 µM in [2]; 30.3 µM in [3]; 46.5 µM in assay [4]; 50.6 µM in [5]. For the same compound, the TGI in [6] worked out at 57.8 µM; in [7], 51.1 µM; in assay [8], 32.3 µM; in [9] it was 35.2 µM; in assay [11], 62.1 µM; in assay [12], 61.3 µM. In addition, the TGI in assay [13] worked out at 38.2 µM; in assay [17] it was 44.3 µM; in assay [14] it was 30.7 µM; in assay [15], 42.3 µM.
With `Nc1ccc2c(SCc3ccc([N+](=O)[O-])cc3)c3ccccc3nc2c1`, the TGI turned out to be 6.04 µM in assay [16]; 29.8 µM in [1]; 39.2 µM in [2]; 31.1 µM in assay [3]; 10.1 µM in assay [4]; 26.5 µM in assay [5]. Besides, the TGI amounted to 27.9 µM in assay [6]; 27 µM in assay [7]; 31.6 µM in assay [8]; 18.5 µM in [9]; 26.5 µM in [10]; 33.7 µM in [18]. The TGI in assay [11] was found to be 42.3 µM; in [12] it was 30.8 µM; in assay [13] it was 34.7 µM; in assay [17], 63.7 µM; in [14], 13.8 µM; in assay [15] it was 27.7 µM.
For `COc1ccc(N=Cc2ccc(N(CCC#N)S(=O)(=O)c3ccccc3)cc2)cc1`, the TGI in assay [16], in assay [1], in [2], in assay [3], in assay [4] and in assay [5] was above 100 µM throughout. In addition, the TGI in assay [6], in assay [7], in assay [8], in assay [9], in assay [10] and in [11] was above 100 µM each time. Moreover, the TGI in [12], in assay [13], in assay [17], in [14] and in assay [15] was above 100 µM in each case.
As to `COC(=O)C(C#CCCCCC#CC(NC(=O)OCc1ccccc1)(C(=O)OC)C(F)(F)F)(NC(=O)OCc1ccccc1)C(F)(F)F` (centres undefined), the TGI in assay [16], in [1], in [3], in [4], in [5] and in assay [6] was above 100 µM in each case. Also, the TGI in [7], in assay [8], in assay [9], in [10], in assay [11] and in [12] was above 100 µM in each case. Also, the TGI in assay [13], in assay [17] and in assay [14] was above 100 µM throughout.
Take `Cc1ccc(N2C(=O)CS/C2=C(\C#N)c2nc3ccccc3[nH]2)cc1`: the TGI in assay [16], in assay [1], in [2], in [3], in [4] and in assay [5] was above 100 µM in each case. Also, the TGI in [6], in assay [7], in assay [8], in [9], in assay [10] and in assay [12] was above 100 µM each time. The TGI in assay [13], in assay [14] and in [15] was above 100 µM throughout.
